Patent US20230295162A1 (EÖTVÖS LORÁND TUDOMÁNYEGYETEM, priority 2020, published 2023)
Read-outs that look alike come from different tables or passages of the source.

Experiments:
[1] = test system: PANC-1 (human pancreatic carcinoma) cells; assay: Impedance-based viability assay (xCELLigence SP), long treatment; type: cell-based; conditions: 72 h, read-out: cytotoxicity expressed in IC50, PANC-1
Excerpt: (Gibco®/Invitrogen Corporation, New York, NY, USA).
Data obtained from each experiment represent mathematical averages.

[2] = test system: EBC-1 lung cancer cell line; assay: High-throughput screening, CellTiter-Glo cell viability assay at 100 nM; type: cell-based, human; conditions: compounds at 100 nM, 72 h, read-out: cytotoxicity expressed in IC50, EBC-1 (results of High throughput screening)
Description: (§1) EBC-1 (obtained from JRCB, https://cellbank.nibiohn.go.jp/english/) and H2228 (obtained from ATCC https://www.lgcstandards-atcc.org/) cell lines were maintained according to the instructions provided by JRCB and ATCC in a 5% CO2 humidified incubator maintained at 37° C. temperature. Effect of compounds on cell viability was measured via CellTiter-Glo® luminescent cell viability assay (Promega, Madison, WI, USA). Cells were plated at 1000 cells/well onto a flat-bottomed, white 96 well plate (BRANDplates, cat. no.: 781965). After 24 h, cells were treated for 72 h with the compounds at 100 nM concentration. After the treatment, medium was removed and CellTiter-Glo® reagent was added. Untreated cells were used as control. The luminescence signal was recorded using a microplate reader (BioTek Synergy 2 Multi-Mode Reader, BioTek, Winooski, VT, USA). Cell viability data (% of untreated control cells) was evaluated with Microsoft Excel.

[3] = test system: H2228 lung cancer cell line; assay: as above; type: cell-based, human; conditions: compounds at 100 nM, 72 h, read-out: cytotoxicity expressed in IC50, H2228 (results of High throughput screening)
Description: as §1

[4] = test system: COLO-205 (human colorectal adenocarcinoma) cells; assay: Colorimetric alamarBlue assay, long treatment; conditions: COLO 205, 72 h, read-out: cytotoxicity expressed in IC50, COLO-205
[5] = test system: A2058 (human metastatic melanoma) cells; assay: Colorimetric alamarBlue assay, long treatment; conditions: read-out: cytotoxicity expressed in IC50, A-2058

Molecule	IC50 [1]	IC50 ([2]; Homo sapiens, EBC-1, HTS)	IC50 ([3]; Homo sapiens, NCI-H2228, HTS)	further results
Nc1ccc(CN2CCC3=C(C2)C(=O)N(Cc2ccc(F)cc2)C2=NCCN23)cc1 [I/86]	25000 nM	> 100 nM	> 100 nM	–
Nc1ccc(CN2CCC3=C(C2)C(=O)N(Cc2ccc(I)cc2)C2=NCCN23)cc1 [I/87]	16000 nM	> 100 nM	> 100 nM	–
O=C1C2=C(CCN(Cc3ccccc3F)C2)N2CCN=C2N1Cc1ccc(I)cc1 [I/54]	1800 nM	–	–	IC50 [4]: 2000 nM
NCc1cccc(CN2C(=O)C3=C(CCN(Cc4ccc(C(F)(F)F)c(F)c4)C3)N3CCN=C23)c1 [I/73]	> 10000 nM	–	–	IC50 ([5]; Homo sapiens, A2058, 72 h): > 10000 nM; IC50 [4]: > 10000 nM
Cc1ccccc1CN1C(=O)C2=C(CCN(Cc3ccc(F)c(F)c3F)C2)N2CCN=C12 [I/10]	> 10000 nM	–	–	IC50 ([5]; Homo sapiens, A2058, 72 h): > 10000 nM; IC50 [4]: > 10000 nM
COc1cc(CN2C(=O)C3=C(CCN(Cc4ccc(N)cc4)C3)N3CCN=C23)cc(OC)c1OC [I/89]	25000 nM	> 100 nM	> 100 nM	–
Cc1ccccc1CN1C(=O)C2=C(CCN(Cc3cccc(F)c3)C2)N2CCN=C12 [I/53]	2000 nM	> 100 nM	> 100 nM	IC50 [4]: 2000 nM
Nc1ccc(CN2C(=O)C3=C(CCN(Cc4cccc(F)c4)C3)N3CCN=C23)cc1 [I/84]	23000 nM	> 100 nM	> 100 nM	–
O=C1C2=C(CCN(Cc3ccc(F)cc3)C2)N2CCN=C2N1Cc1ccc(I)cc1 [I/55]	760 nM	> 100 nM	> 100 nM	IC50 [4]: 1000 nM
O=C1C2=C(CCN(Cc3ccccc3)C2)N2CCN=C2N1CC1CNC1 [I/90]	–	> 100 nM	> 100 nM	–
Cc1ccccc1CN1C(=O)C2=C(CCN(CCc3cccc(F)c3)C2)N2CCN=C12 [I/45]	> 10000 nM	–	–	IC50 ([5]; Homo sapiens, A2058, 72 h): > 10000 nM; IC50 [4]: > 10000 nM
NCc1cccc(CN2CCC3=C(C2)C(=O)N(Cc2ccc(I)cc2)C2=NCCN23)c1 [I/59]	660 nM	> 100 nM	> 100 nM	–
Nc1cccc(CN2C(=O)C3=C(CCN(Cc4cccc(F)c4)C3)N3CCN=C23)c1 [I/76]	–	> 100 nM	> 100 nM	–
[N-]=[N+]=Nc1cccc(CN2CCC3=C(C2)C(=O)N(Cc2ccc(C(F)(F)F)c(F)c2)C2=NCCN23)c1 [I/112]	100 nM	< 100 nM	< 100 nM	IC50 ([5]; Homo sapiens, A2058, 72 h): 25000 nM
Cc1ccccc1CN1C(=O)C2=C(CCN(Cc3ccc(F)cc3C(F)(F)F)C2)N2CCN=C12 [I/12]	–	> 100 nM	> 100 nM	–
[N-]=[N+]=Nc1ccc(CN2CCC3=C(C2)C(=O)N(Cc2ccc(F)cc2)C2=NCCN23)cc1 [I/109]	8900 nM	–	–	–
O=C1C2=C(CCN(Cc3ccc(F)c(F)c3F)C2)N2CCN=C2N1Cc1ccc(I)cc1 [I/18]	–	> 100 nM	> 100 nM	–
O=C1C2=C(CCN(CC3CCNCC3)C2)N2CCN=C2N1Cc1ccc(F)cc1 [I/95]	–	> 100 nM	> 100 nM	–
Nc1ccc(CN2CCC3=C(C2)C(=O)N(CC2CNC2)C2=NCCN23)cc1 [I/91]	–	> 100 nM	> 100 nM	–
Nc1ccc(CN2CCC3=C(C2)C(=O)N(Cc2ccc(C(F)(F)F)cc2)C2=NCCN23)cc1 [I/81]	21000 nM	> 100 nM	> 100 nM	–
Cc1ccccc1CN1C(=O)C2=C(CCN(CC3CNC3)C2)N2CCN=C12 [I/92]	–	> 100 nM	> 100 nM	–
O=C1C2=C(CCN(Cc3ccc(F)c(F)c3)C2)N2CCN=C2N1Cc1ccc(F)cc1 [I/23]	–	> 100 nM	> 100 nM	–
[N-]=[N+]=Nc1ccc(CN2CCC3=C(C2)C(=O)N(Cc2cccc(F)c2)C2=NCCN23)cc1 [I/108]	–	> 100 nM	> 100 nM	–
O=C1C2=C(CCN(Cc3ccc(F)c(F)c3)C2)N2CCN=C2N1Cc1ccc(I)cc1 [I/17]	–	> 100 nM	> 100 nM	–
[N-]=[N+]=Nc1cccc(CN2CCC3=C(C2)C(=O)N(Cc2ccc(I)cc2)C2=NCCN23)c1 [I/113]	250 nM	< 100 nM	< 100 nM	IC50 ([5]; Homo sapiens, A2058, 72 h): 250 nM
O=C1C2=C(CCN(Cc3cc(C(F)(F)F)cc(C(F)(F)F)c3)C2)N2CCN=C2N1Cc1ccc(C(F)(F)F)cc1 [I/21]	–	> 100 nM	> 100 nM	–
Nc1ccc(CN2C(=O)C3=C(CCN(Cc4cc(F)cc(F)c4)C3)N3CCN=C23)cc1 [I/88]	–	> 100 nM	> 100 nM	–

Molecule	IC50 [1]	IC50 ([2]; Homo sapiens, EBC-1, HTS)	IC50 ([3]; Homo sapiens, NCI-H2228, HTS)	further results
O=C1C2=C(CCN(Cc3cccc(F)c3)C2)N2CCN=C2N1Cc1ccc([N+](=O)[O-])cc1F [I/49]	–	< 100 nM	< 100 nM	–
7-Benzyl-4-(4-(4-ferrocenyl-1H-1,2,3-triazol-1-yl)benzyl)-2,4,6,7,8,9-hexahydroimidazo[1,2-a]pyrido[3,4-e]pyrimidin-5(1H)-one [I/121]	–	–	–	IC50 ([5]; alamarBlue, 72 h): 2500 nM; IC50 ([2]; HTS): > 100 nM; IC50 ([3]; HTS): > 100 nM
O=C1C2=C(CCN(CC3CCCN3)C2)N2CCN=C2N1Cc1ccc(F)cc1 (stereo not drawn) [I/100]	–	> 100 nM	> 100 nM	–
COc1cc(CN2C(=O)C3=C(CCN(Cc4ccccc4)C3)N3CCN=C23)cc(OC)c1OC [I/51]	–	> 100 nM	> 100 nM	–
Cc1ccccc1CN1C(=O)C2=C(CCN(CC3CCNC3)C2)N2CCN=C12 (stereo not drawn) [I/97]	–	> 100 nM	> 100 nM	–
Cc1ccccc1CN1C(=O)C2=C(CCN(CC3CCNCC3)C2)N2CCN=C12 [I/94]	–	> 100 nM	> 100 nM	–
NCc1ccc(CN2C(=O)C3=C(CCN(Cc4ccccc4)C3)N3CCN=C23)cc1 [I/62]	–	> 100 nM	> 100 nM	–
O=C1C2=C(CCN(Cc3ccccc3)C2)N2CCN=C2N1Cc1cccc(I)c1 [I/56]	–	> 100 nM	> 100 nM	–
O=C1C2=C(CCN(Cc3ccc(F)c(F)c3F)C2)N2CCN=C2N1Cc1ccc(F)cc1 [I/34]	–	> 100 nM	> 100 nM	–
COc1cc(CN2C(=O)C3=C(CCN(Cc4ccc(N=[N+]=[N-])cc4)C3)N3CCN=C23)cc(OC)c1OC [I/116]	–	> 100 nM	> 100 nM	–
O=C1C2=C(CCN(Cc3cc(F)cc(F)c3)C2)N2CCN=C2N1Cc1ccc(I)cc1 [I/38]	–	< 100 nM	< 100 nM	–
[N-]=[N+]=Nc1ccc(CN2C(=O)C3=C(CCN(Cc4ccccc4)C3)N3CCN=C23)cc1 [I/104]	500 nM	–	–	IC50 ([5]; Homo sapiens, A2058, 72 h): 2500 nM; IC50 [4]: 250 nM
O=C1C2=C(CCN(Cc3ccccc3)C2)N2CCN=C2N1Cc1ccc(F)c(F)c1F [I/29]	660 nM	–	–	IC50 ([5]; Homo sapiens, A2058, 72 h): > 10000 nM; IC50 [4]: > 10000 nM
Cc1ccccc1CN1C(=O)C2=C(CCN(Cc3ccc(N)cc3)C2)N2CCN=C12 [I/74]	–	> 100 nM	> 100 nM	–
Cc1ccccc1CN1C(=O)C2=C(CCN(Cc3cccc(N=[N+]=[N-])c3)C2)N2CCN=C12 [I/103]	270 nM	> 100 nM	> 100 nM	IC50 ([5]; Homo sapiens, A2058, 72 h): 25000 nM
O=C1C2=C(CCN(Cc3cccc(F)c3)C2)N2CCN=C2N1Cc1ccc(Br)cc1 [I/4, reference compound]	–	< 100 nM	< 100 nM	–
O=C1C2=C(CCN(Cc3cc(C(F)(F)F)cc(C(F)(F)F)c3)C2)N2CCN=C2N1Cc1ccc(I)cc1 [I/16]	–	> 100 nM	> 100 nM	–
COCCOc1cc2ncnc(Nc3cccc(-c4cn(-c5ccc(CN6CCC7=C(C6)C(=O)N(Cc6ccccc6C)C6=NCCN67)cc5)nn4)c3)c2cc1OCCOC [I/122]	–	> 100 nM	> 100 nM	–
O=C1C2=C(CCN(Cc3cccc(C(F)(F)F)c3)C2)N2CCN=C2N1Cc1ccc(I)cc1 [I/15A]	–	> 100 nM	> 100 nM	–
Nc1ccc(CN2CCC3=C(C2)C(=O)N(Cc2ccc(C(F)(F)F)c(F)c2)C2=NCCN23)cc1 [I/82]	–	> 100 nM	> 100 nM	–
Cc1ccccc1CN1C(=O)C2=C(CCN(CC3CCCN3)C2)N2CCN=C12 (stereo not drawn) [I/99]	–	> 100 nM	> 100 nM	–
O=C1C2=C(CCN(Cc3cc(C(F)(F)F)cc(C(F)(F)F)c3)C2)N2CCN=C2N1Cc1ccc(F)cc1 [I/24]	–	> 100 nM	> 100 nM	–
Nc1ccc(CN2CCC3=C(C2)C(=O)N(Cc2cccc(F)c2)C2=NCCN23)cc1 [I/83]	–	> 100 nM	> 100 nM	–
O=C1C2=C(CCN(Cc3cccc(C(F)(F)F)c3)C2)N2CCN=C2N1Cc1ccc(F)cc1 [I/32]	–	> 100 nM	> 100 nM	–
O=C1C2=C(CCN(Cc3ccccc3)C2)N2CCN=C2N1CCc1cccc(F)c1 [I/44]	> 10000 nM	–	–	IC50 ([5]; Homo sapiens, A2058, 72 h): > 10000 nM; IC50 [4]: > 10000 nM
Nc1cccc(CN2C(=O)C3=C(CCN(Cc4ccccc4)C3)N3CCN=C23)c1 [I/75]	6100 nM	> 100 nM	> 100 nM	IC50 ([5]; Homo sapiens, A2058, 72 h): 25000 nM
[N-]=[N+]=Nc1ccc(CN2CCC3=C(C2)C(=O)N(CC2CNC2)C2=NCCN23)cc1 [I/118]	–	> 100 nM	> 100 nM	–
